Results as given in article PMC7136958, “Targeting the pregnane X receptor using microbial metabolite mimicry” (EMBO Molecular Medicine, 2020).
Where “and” joins values, the source holds several entries; their conditions need not be identical. Equal values may be shown once. Read-outs that look alike come from different tables or passages of the source.

How the values were obtained:
mdr1 = assay: PXR target gene expression in pxr -/- mice after FKK6 gavage; assay type: in vivo, mouse; details: pxr-/- (PXR knockout), mouse, oral, 500 μM, 5 doses (60 h), mean
Experimental: (Scheer et al, 2010) were administered 10% DMSO (n = 3) or FKK6 (n = 3) in 3 or 5 doses, with each dose interval of 12 h. Each gavage dose volume was 100 μl. 2–4 h after the dosing period, mice were sacrificed, and tissues were harvested for further analysis. The mouse studies were performed three independent times over an 18‐month period. All purchased mice were acclimatized in the Einstein vivarium for ~ 2 weeks before experiments started. […]. The room temperature was maintained at 25 ± 2°C with 55 ± 5% humidity. All studies were approved by the Institute of Animal Studies at the Albert Einstein College of Medicine, INC (IACUC # 20160706, 20160701 and preceding protocols), and specific animal protocols were also approved by additional protocols (IACUC# 20170406, 20170504) and Animal Care and Use Review Office (ACURO) of the US Army Medical Research and Materiel Command (PR160167, W81XWH‐17‐1‐0479). […]
Mouse small, large intestine and liver samples were collected and total RNAs were […]
isolated. […] Each tissue PCR was […]
repeated in quadruplicate. The expression was normalized to internal control, GAPDH. ( b,d) The histograms show mean (95 %CI) values, c, mean (SD) and two way ANOVA followed with Tukey's post hoc test. The entire experiment was repeated n = 3 for reproducibility. The data shown is one representative experiment .

pCAF = target: T1, pCAF (Homo sapiens, UniProt Q92831); assay: Histone acetyltransferase assay pCAF (Reaction Biology); assay type: biochemical; details: substrate Histone H3, replicates
T1 construct: purchased Reaction Biology Corp; host or cells: E. coli
T1 sequence (Q92831 492-658): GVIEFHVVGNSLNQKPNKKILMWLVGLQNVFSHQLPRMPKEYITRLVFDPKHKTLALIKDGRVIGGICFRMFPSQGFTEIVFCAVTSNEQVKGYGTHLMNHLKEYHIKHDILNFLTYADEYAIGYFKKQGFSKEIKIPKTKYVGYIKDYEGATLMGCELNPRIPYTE
Experimental: The following […] assays (HDAC, SIRT1, PRMT1, PARP1, p300, pCAF) were performed by Reaction Biology Corp. FKK6 was screened at a single concentration of 10 μM in duplicate in two separate experiments. The appropriate controls for the individual assays are published. The overall […]
enzyme activity in the assay is reported as a % activity in DMSO control wells. Control IC50 […]
Briefly, for the Sirtuin (SIRT1) assay, human SIRT1 (GenBank
Accession No. NM012238) full -length N-terminal His-tag protein (MW 83.2 kDa) was purified after expression in E. coli. The reaction buffer was freshly prepared and constituted 50 mM Tris-HC l ( p H 8), 137 mM NaCl, 2.7 mM KCl, 1 mM MgCl2, and just before use, 1 mg/mL BSA and 1% DMSO was added. The substrate was a fluorogenic acetylated peptide of p53 residues 379-382 (RHKK (Ac)- AM C) . […]
8), 50 mM NaCl, 0.1 mM EDTA, 1 mM DTT, 1 mM PMSF, and 1% DMSO. […] The radioactivity in mixture is detected on washed filter paper using a scintillation counter. […]
Reader (Perkin Elmer) (Ex 360 nm/ Em 460 nm). For all enzyme activity assays, the percentage of enzyme activity (relative to DMSO controls) and IC50 values were calculated using GraphPad Prism 4 program (sigmoidal dose response equations). […]

pxr -/- mice = assay: DSS-induced acute colitis in pxr -/- mice; assay type: in vivo, mouse
Experimental: For these studies, 7‐ to 8‐week‐old female (DeVoss & Diehl, 2014) hPXR (mice expressing the human PXR gene) and pxr ^−/− mice (C57BL/6 background) were bred and each genotype was separated into two treatment groups using a random allocation method via coin toss—(i) n = 3 control (0.8% DMSO in 100 μl drinking water) and (ii) n = 3 FKK6 (200 μM (0.4 mg/kg/day) in 0.8% DMSO in 100 μl drinking water) administered once per day via oral gavage, and via intrarectal gavage for a total of 10 consecutive days The dose was chosen based on the extrapolation of the total dose delivered over 10 days to mice (~ 4 mg/kg), which is equivalent to that delivered to mice for determining target gene expression over 3–5 doses (3–5 mg/kg). […] Fecal pellets were collected prior to the initiation of the treatment protocol. All mice were starved overnight (12 h) to allow for smooth intrarectal delivery; however, the mice were allowed to feed ad libitum during the day. After 10 days, the mice were sacrificed and organs/tissues/feces harvested for further study. Prior to necropsy, mice were administered FITC‐dextran, and mouse serum was collected for the FITC‐dextran assay as previously described (Vetizou et al, 2015). The experimenter was not blinded to treatment allocation; however, the pathologist (KS) evaluating histologic scores was blinded to treatment allocation. […]

SMILES: C#CCC(O)(c1ccncc1)c1cc2ccccc2n1S(=O)(=O)c1ccccc1 (stereo not shown) [FKK6]
- fold induction at 60 h, 500 µM (mdr1; large intestine, read-out: mdr1 fold induction, Large Intestine): 0.71
- fold induction at 60 h, 500 µM (mdr1; liver, read-out: mdr1 fold induction, Liver): 1.22
- fold induction at 60 h, 500 µM (mdr1; small intestine, read-out: mdr1 fold induction, Small Intestine): 1.16
- % Enzyme Activity to DMSO controls (pCAF; 10 μM): 101.68% and 104.61% and 104.47%
- remaining activity at 10 µM (pCAF; read-out: % Enzyme Activity to DMSO controls): 100%
- weight loss, colon length, inflammation score, lipocalin 2, FITC-dextran levels (pxr -/- mice; FKK6 200 μM, 10 days): did not alter
- % weight loss from baseline (day 10) (pxr -/- mice; pxr -/- mice, DSS colitis, Fig 6a, individual values): 24% and 25% and 22%
